Data published in patent US12570650B2, “6-substituted pyridazine compounds as SMARCA2 and/or SMARCA4 degraders” (Aurigene Oncology Limited, priority 2020, dated 2026).

How the values were obtained:
[1] = molecular target: T1, SMARCA4 (Homo sapiens, UniProt P51532); test: SMARCA4 degradation in VCaP cells by Western blot; assay type: cell-based; settings: 16 hours
T1 construct: Determination of SMARCA2 and SMARCA4 Degradation in VCaP Cells by Western Blot; endogenous in cells; host or cells: VCaP (ATCC CRL-2876)
Protocol: On the third day, compounds of present invention were added to cells from 10 mM stocks made in DMSO (Sigma Cat no. D2650). Each concentration of compound was tested with DMSO not exceeding final percentage of 0.3 in the cells. […] Equal amount of protein was loaded on SDS PAGE gel for electrophoresis. […] Percentage of SMARCA2 or SMARCA4 degradation was calculated using formula % Degradation=100−(normalized band intensity in treated sample/normalized band intensity in DMSO sample)*100.

[2] = molecular target: T2, SMARCA2 (Homo sapiens, UniProt P51531); test: SMARCA2 degradation in VCaP cells by Western blot; assay type: cell-based; settings: 16 hours
T2 construct: Determination of SMARCA2 and SMARCA4 Degradation in VCaP Cells by Western Blot; endogenous in cells; host or cells: VCaP (ATCC CRL-2876)
Protocol: Example-P2: Determination of SMARCA2 and SMARCA4 Degradation in VCaP Cells by Western Blot
VCaP (ATCC CRL-2876) was plated in 6 well plates using complete Dulbecco's Modified Eagle's Medium. On the third day, compounds of present invention were added to cells from 10 mM stocks made in DMSO (Sigma Cat no. D2650). Each concentration of compound was tested with DMSO not exceeding final percentage of 0.3 in the cells. Cells were incubated with the compound for 16 hours followed by harvesting with 1×RIPA lysis buffer (Thermo Fischer, catalogue number #89900) containing protease inhibitor cocktail (Sigma catalogue number #P-8340). Equal amount of protein was loaded on SDS PAGE gel for electrophoresis. Western blot was carried out for detection of either SMARCA2 (Cell signalling technologies, catalogue number #11966) or SMARCA4 antibody (Cell signalling technologies, catalogue number #52251). Beta-Tubulin antibody (Cell signalling technologies, catalogue number #86298) was used as loading control. Percentage of SMARCA2 or SMARCA4 degradation was calculated using formula % Degradation=100−(normalized band intensity in treated sample/normalized band intensity in DMSO sample)*100.

T2 sequence (P51531 whole entry): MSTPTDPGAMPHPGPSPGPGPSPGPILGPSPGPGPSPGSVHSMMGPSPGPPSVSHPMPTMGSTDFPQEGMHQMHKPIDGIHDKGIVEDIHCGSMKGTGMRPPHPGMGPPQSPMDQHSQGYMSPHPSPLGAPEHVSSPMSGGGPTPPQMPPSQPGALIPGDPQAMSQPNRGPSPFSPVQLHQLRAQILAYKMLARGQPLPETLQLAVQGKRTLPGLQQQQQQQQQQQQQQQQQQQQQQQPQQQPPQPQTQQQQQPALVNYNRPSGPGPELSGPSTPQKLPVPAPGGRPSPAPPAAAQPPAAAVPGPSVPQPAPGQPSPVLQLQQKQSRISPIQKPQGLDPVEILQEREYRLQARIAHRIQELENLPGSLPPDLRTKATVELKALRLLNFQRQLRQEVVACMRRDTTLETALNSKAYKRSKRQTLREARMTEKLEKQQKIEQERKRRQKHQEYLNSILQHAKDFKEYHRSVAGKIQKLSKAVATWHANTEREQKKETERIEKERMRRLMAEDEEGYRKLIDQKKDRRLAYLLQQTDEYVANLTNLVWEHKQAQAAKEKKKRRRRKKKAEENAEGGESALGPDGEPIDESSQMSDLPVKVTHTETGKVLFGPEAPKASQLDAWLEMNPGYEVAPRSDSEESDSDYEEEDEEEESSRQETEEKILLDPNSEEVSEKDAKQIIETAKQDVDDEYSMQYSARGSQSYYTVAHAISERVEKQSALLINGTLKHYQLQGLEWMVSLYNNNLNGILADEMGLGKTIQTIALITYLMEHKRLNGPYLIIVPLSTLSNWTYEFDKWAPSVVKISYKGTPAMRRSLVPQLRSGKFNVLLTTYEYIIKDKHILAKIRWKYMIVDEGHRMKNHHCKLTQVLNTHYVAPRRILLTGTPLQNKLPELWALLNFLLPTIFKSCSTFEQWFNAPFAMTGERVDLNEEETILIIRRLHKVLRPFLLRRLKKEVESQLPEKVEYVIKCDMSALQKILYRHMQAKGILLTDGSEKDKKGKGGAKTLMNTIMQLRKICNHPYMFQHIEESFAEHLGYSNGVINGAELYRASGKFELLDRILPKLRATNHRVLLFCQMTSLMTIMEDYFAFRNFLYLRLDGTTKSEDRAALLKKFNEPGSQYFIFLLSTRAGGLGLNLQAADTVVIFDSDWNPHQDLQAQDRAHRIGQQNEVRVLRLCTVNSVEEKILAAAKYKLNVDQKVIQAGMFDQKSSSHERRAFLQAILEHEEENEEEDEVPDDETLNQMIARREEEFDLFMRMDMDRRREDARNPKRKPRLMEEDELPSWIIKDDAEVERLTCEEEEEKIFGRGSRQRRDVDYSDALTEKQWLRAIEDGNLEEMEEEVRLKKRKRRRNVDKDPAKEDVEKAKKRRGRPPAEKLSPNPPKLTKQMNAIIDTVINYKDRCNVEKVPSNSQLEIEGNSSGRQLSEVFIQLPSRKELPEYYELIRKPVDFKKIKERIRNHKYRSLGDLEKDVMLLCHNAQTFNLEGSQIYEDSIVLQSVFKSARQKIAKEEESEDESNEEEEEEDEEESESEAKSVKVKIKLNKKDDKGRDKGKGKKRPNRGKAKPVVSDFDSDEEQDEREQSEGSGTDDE
T1 sequence (P51532 whole entry): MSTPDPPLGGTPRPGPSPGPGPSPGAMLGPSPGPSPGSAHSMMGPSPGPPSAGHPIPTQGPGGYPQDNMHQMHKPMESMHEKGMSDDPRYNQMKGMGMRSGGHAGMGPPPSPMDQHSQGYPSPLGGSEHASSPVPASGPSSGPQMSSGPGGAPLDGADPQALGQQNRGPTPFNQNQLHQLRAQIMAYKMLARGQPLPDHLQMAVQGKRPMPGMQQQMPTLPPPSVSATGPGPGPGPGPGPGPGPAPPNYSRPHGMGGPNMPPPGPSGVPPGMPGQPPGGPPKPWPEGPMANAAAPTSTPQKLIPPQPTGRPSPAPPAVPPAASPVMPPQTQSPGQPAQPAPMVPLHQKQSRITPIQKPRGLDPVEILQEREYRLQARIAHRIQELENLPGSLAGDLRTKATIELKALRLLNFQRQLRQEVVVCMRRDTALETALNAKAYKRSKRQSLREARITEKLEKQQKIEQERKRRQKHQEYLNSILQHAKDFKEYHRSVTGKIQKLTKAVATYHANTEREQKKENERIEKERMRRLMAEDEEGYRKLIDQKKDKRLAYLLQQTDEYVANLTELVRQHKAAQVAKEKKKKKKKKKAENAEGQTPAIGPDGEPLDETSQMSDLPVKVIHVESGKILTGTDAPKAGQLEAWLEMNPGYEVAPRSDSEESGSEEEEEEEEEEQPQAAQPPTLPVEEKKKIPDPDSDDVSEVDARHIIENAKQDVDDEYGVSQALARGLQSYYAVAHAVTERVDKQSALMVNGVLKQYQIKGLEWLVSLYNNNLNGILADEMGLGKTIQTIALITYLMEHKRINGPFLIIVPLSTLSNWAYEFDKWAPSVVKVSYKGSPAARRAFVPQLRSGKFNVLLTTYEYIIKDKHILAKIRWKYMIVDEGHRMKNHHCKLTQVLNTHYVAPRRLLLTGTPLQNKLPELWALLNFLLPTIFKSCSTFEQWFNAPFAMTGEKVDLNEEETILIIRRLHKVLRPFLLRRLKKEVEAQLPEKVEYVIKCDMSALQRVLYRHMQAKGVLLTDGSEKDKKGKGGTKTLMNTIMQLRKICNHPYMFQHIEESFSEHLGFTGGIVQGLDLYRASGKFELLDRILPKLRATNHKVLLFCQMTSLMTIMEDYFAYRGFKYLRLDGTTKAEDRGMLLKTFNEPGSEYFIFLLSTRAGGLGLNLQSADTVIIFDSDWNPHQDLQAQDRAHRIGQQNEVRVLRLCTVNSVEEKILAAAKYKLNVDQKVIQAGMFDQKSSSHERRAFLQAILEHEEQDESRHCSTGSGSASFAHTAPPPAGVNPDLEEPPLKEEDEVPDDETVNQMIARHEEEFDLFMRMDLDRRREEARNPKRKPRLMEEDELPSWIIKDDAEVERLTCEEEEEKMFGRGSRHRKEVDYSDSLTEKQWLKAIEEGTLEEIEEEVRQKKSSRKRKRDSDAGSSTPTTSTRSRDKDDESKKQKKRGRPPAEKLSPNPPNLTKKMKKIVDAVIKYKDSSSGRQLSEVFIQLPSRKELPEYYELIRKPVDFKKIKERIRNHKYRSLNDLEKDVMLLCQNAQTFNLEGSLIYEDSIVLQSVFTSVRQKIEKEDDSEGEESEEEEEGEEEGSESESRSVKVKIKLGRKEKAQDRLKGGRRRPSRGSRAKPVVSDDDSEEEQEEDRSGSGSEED

Row | Compound | Percent degradation (at 100 nM) SMARCA4 [1] [%] | Percent degradation (at 100 nM) SMARCA2 [2] [%]
1 | Cc1ncsc1-c1ccc([C@H](C)NC(=O)[C@@H]2C[C@@H](O)CN2C(=O)C(c2cc(-c3ccc(-c4cnnc(-c5ccccc5O)c4)cc3)no2)C(C)C)cc1 (mixture of isomers) [Compound 1, (2S,4R)-4-hydroxy-1-(2-(3-(4-(6-(2-hydroxyphenyl)pyridazin-4-yl)phenyl)isoxazol-5-yl)-3-methylbutanoyl)-N-((S)-1-(4-(4-methylthiazol-5-yl)phenyl)ethyl)pyrrolidine-2-carboxamide] | 30 | 0
2 | Cc1ncsc1-c1ccc([C@H](C)NC(=O)[C@@H]2C[C@@H](O)CN2C(=O)[C@@H](NC(=O)C(C)N2CCN(c3ccc(-c4cnnc(-c5ccccc5O)c4)cc3)CC2)C(C)(C)C)cc1 (single isomer, unassigned) [Compound 29] | 0 | 40
3 | Cc1ncsc1-c1ccc([C@H](C)NC(=O)[C@@H]2C[C@@H](O)CN2C(=O)[C@@H](NC(=O)CCN2CCN(c3ccc(-c4cnnc(-c5ccccc5O)c4)cc3)CC2)C(C)(C)C)cc1 [Compound 8, (2S,4R)-4-hydroxy-1-((S)-2-(3-(4-(4-(6-(2-hydroxyphenyl)pyridazin-4-yl)phenyl)piperazin-1-yl)propanamido)-3,3-dimethylbutanoyl)-N-((S)-1-(4-(4-methylthiazol-5-yl)phenyl)ethyl)pyrrolidine-2-carboxamide] | 20 | 84
4 | Cc1ncsc1-c1ccc([C@H](C)NC(=O)[C@@H]2C[C@@H](O)CN2C(=O)[C@@H](NC(=O)CN2CCN(c3ccc(-c4cnnc(-c5cnn(C)c5)c4)cc3)CC2)C(C)(C)C)cc1 [Compound 9, (2S,4R)-1-((S)-3,3-dimethyl-2-(2-(4-(4-(6-(1-methyl-1H-pyrazol-4-yl)pyridazin-4-yl)phenyl)piperazin-1-yl)acetamido)butanoyl)-4-hydroxy-N-((S)-1-(4-(4-methylthiazol-5-yl)phenyl)ethyl)pyrrolidine-2-carboxamide] | 14 | 0
5 | Cc1ncsc1-c1ccc([C@H](C)NC(=O)[C@@H]2C[C@@H](O)CN2C(=O)[C@@H](NC(=O)CN2CCN(c3ccc(-c4cnnc(-c5ccccc5O)c4)cc3F)CC2)C(C)(C)C)cc1 [Compound 26, (2S,4R)-1-((S)-2-(2-(4-(2-fluoro-4-(6-(2-hydroxyphenyl)pyridazin-4-yl)phenyl)piperazin-1-yl)acetamido)-3,3-dimethylbutanoyl)-4-hydroxy-N-((S)-1-(4-(4-methylthiazol-5-yl)phenyl)ethyl)pyrrolidine-2-carboxamide] | 0 | 89
6 | Cc1ncsc1-c1ccc([C@H](C)NC(=O)[C@@H]2C[C@@H](O)CN2C(=O)[C@@H](NC(=O)CCCCOc2ccc(-c3cnnc(-c4ccccc4O)c3)cc2)C(C)(C)C)cc1 [Compound 34, (2S,4R)-4-hydroxy-1-((S)-2-(5-(4-(6-(2-hydroxyphenyl)pyridazin-4-yl)phenoxy)pentanamido)-3,3-dimethylbutanoyl)-N-((S)-1-(4-(4-methylthiazol-5-yl)phenyl)ethyl)pyrrolidine-2-carboxamide] | 58 | 81
7 | Cc1ncsc1-c1ccc([C@H](C)NC(=O)[C@@H]2C[C@@H](O)CN2C(=O)[C@@H](NC(=O)CN2CCN(c3ccc(-c4cnnc(-c5cccc6cc[nH]c56)c4)cc3)CC2)C(C)(C)C)cc1 [Compound 39, (2S,4R)-1-((S)-2-(2-(4-(4-(6-(1H-indol-7-yl)pyridazin-4-yl)phenyl)piperazin-1-yl)acetamido)-3,3-dimethylbutanoyl)-4-hydroxy-N-((S)-1-(4-(4-methylthiazol-5-yl)phenyl)ethyl)pyrrolidine-2-carboxamide] | 17 | 46
8 | Cc1ncsc1-c1ccc([C@H](C)NC(=O)[C@@H]2C[C@@H](O)CN2C(=O)[C@@H](NC(=O)CN2CCN(c3ccc(-c4cnnc(-c5cccc6cn[nH]c56)c4)cc3)CC2)C(C)(C)C)cc1 [Compound 41, (2S,4R)-1-((S)-2-(2-(4-(4-(6-(1H-indazol-7-yl)pyridazin-4-yl)phenyl)piperazin-1-yl)acetamido)-3,3-dimethylbutanoyl)-4-hydroxy-N-((S)-1-(4-(4-methylthiazol-5-yl)phenyl)ethyl)pyrrolidine-2-carboxamide] | 22 | 12

Results, then the molecule that gave them:

Row | Percent degradation (at 100 nM) SMARCA4 [1] [%] | Percent degradation (at 100 nM) SMARCA2 [2] [%] | Compound
9 | 6 | 22 | Cc1ncsc1-c1ccc([C@H](C)NC(=O)[C@@H]2C[C@@H](O)CN2C(=O)C(c2cc(OCCN(C)c3ccc(-c4cnnc(-c5ccccc5O)c4)cc3)no2)C(C)C)cc1 (mixture of isomers) [Compound 44, (2S,4R)-4-hydroxy-1-(2-(3-(2-((4-(6-(2-hydroxyphenyl)pyridazin-4-yl)phenyl)(methyl)amino)ethoxy)isoxazol-5-yl)-3-methylbutanoyl)-N-((S)-1-(4-(4-methylthiazol-5-yl)phenyl)ethyl)pyrrolidine-2-carboxamide]
10 | 47 | 20 | Cc1ncsc1-c1ccc([C@H](C)NC(=O)[C@@H]2C[C@@H](O)CN2C(=O)[C@@H](NC(=O)CN2CCN(c3ccc(-c4cnnc(Cl)c4)cc3)CC2)C(C)(C)C)cc1 [Compound 3, (2S,4R)-1-((S)-2-(2-(4-(4-(6-chloropyridazin-4-yl)phenyl)piperazin-1-yl)acetamido)-3,3-dimethylbutanoyl)-4-hydroxy-N-((S)-1-(4-(4-methylthiazol-5-yl)phenyl)ethyl)pyrrolidine-2-carboxamide]
11 | 0 | 81 | Cc1ncsc1-c1ccc([C@H](C)NC(=O)[C@@H]2C[C@@H](O)CN2C(=O)[C@@H](NC(=O)CN2CCN(c3ccc(-c4cnnc(-c5cc(F)ccc5O)c4)cc3)CC2)C(C)(C)C)cc1 [Compound 4, (2S,4R)-1-((S)-2-(2-(4-(4-(6-(5-fluoro-2-hydroxyphenyl)pyridazin-4-yl)phenyl)piperazin-1-yl)acetamido)-3,3-dimethylbutanoyl)-4-hydroxy-N-((S)-1-(4-(4-methylthiazol-5-yl)phenyl)ethyl)pyrrolidine-2-carboxamide]
12 | 0 | 88 | Cc1ncsc1-c1ccc([C@H](C)NC(=O)[C@@H]2C[C@@H](O)CN2C(=O)[C@@H](NC(=O)CN2CCC(Oc3ccc(-c4cnnc(-c5ccccc5O)c4)cc3)CC2)C(C)(C)C)cc1 [Compound 19, (2S,4R)-4-hydroxy-1-((S)-2-(2-(4-(4-(6-(2-hydroxyphenyl)pyridazin-4-yl)phenoxy)piperidin-1-yl)acetamido)-3,3-dimethylbutanoyl)-N-((S)-1-(4-(4-methylthiazol-5-yl)phenyl)ethyl)pyrrolidine-2-carboxamide]
13 | 0 | 69 | Cc1ncsc1-c1ccc([C@H](C)NC(=O)[C@@H]2C[C@@H](O)CN2C(=O)[C@@H](NC(=O)CN2CCC(n3cc(-c4cnnc(-c5ccccc5O)c4)cn3)CC2)C(C)(C)C)cc1 [Compound 33, (2S,4R)-4-hydroxy-1-((S)-2-(2-(4-(4-(6-(2-hydroxyphenyl)pyridazin-4-yl)-1H-pyrazol-1-yl)piperidin-1-yl)acetamido)-3,3-dimethylbutanoyl)-N-((S)-1-(4-(4-methylthiazol-5-yl)phenyl)ethyl)pyrrolidine-2-carboxamide]
14 | 26 | 45 | Cc1ncsc1-c1ccc([C@H](C)NC(=O)[C@@H]2C[C@@H](O)CN2C(=O)[C@@H](NC(=O)CN2CCN(c3ccc(-c4cnnc(-c5ccccc5C(F)F)c4)cc3)CC2)C(C)(C)C)cc1 [Compound 37, (2S,4R)-1-((S)-2-(2-(4-(4-(6-(2-(difluoromethyl)phenyl)pyridazin-4-yl)phenyl)piperazin-1-yl)acetamido)-3,3-dimethylbutanoyl)-4-hydroxy-N-((S)-1-(4-(4-methylthiazol-5-yl)phenyl)ethyl)pyrrolidine-2-carboxamide]
15 | 3 | 6 | Cc1ncsc1-c1ccc([C@H](C)NC(=O)[C@@H]2C[C@@H](O)CN2C(=O)[C@@H](NC(=O)CN2CCN(c3ccc(-c4cnnc(-c5cccc6ccoc56)c4)cc3)CC2)C(C)(C)C)cc1 [Compound 40, (2S,4R)-1-((S)-2-(2-(4-(4-(6-(benzofuran-7-yl)pyridazin-4-yl)phenyl)piperazin-1-yl)acetamido)-3,3-dimethylbutanoyl)-4-hydroxy-N-((S)-1-(4-(4-methylthiazol-5-yl)phenyl)ethyl)pyrrolidine-2-carboxamide]
